Experimental data as given in ChEMBL document CHEMBL5725783, “Substituted sulfonamide compounds” (2017).

Target: Transient receptor potential cation channel subfamily A member 1 (Homo sapiens, UniProt O75762)
Assay: Fluorescence Assay: IC50s (effective concentration) of compounds on the human TRPA1 channel were determined using a Hamamatsu FDSS fluorescence plate reader. CHO cells expressing human TRPA1 were plated into 384-well plates, incubated overnight at 37° C., and loaded with BD calcium indicator dye for 1 hr at 37° C. followed by 15 minutes at room temperature. The assay buffer was Hank's Balanced Salt Solution (HBSS) containing 20 mM HEPES (pH readjusted to 7.4) along with 0.02% BSA.Following dye load and plate cool down, compounds were added to the cells using the FDSS while monitoring fluorescence to determine whether any of the test compounds have TRPA1 agonist activity. Plates were then incubated with compound for 20 minutes at room temperature prior to adding agonist. Following this incubation, […] cinnamaldehyde was added to all wells of the plate and block of this cinnamaldehyde induced calcium influx was measured.

Sequence of Transient receptor potential cation channel subfamily A member 1 (O75762 whole entry): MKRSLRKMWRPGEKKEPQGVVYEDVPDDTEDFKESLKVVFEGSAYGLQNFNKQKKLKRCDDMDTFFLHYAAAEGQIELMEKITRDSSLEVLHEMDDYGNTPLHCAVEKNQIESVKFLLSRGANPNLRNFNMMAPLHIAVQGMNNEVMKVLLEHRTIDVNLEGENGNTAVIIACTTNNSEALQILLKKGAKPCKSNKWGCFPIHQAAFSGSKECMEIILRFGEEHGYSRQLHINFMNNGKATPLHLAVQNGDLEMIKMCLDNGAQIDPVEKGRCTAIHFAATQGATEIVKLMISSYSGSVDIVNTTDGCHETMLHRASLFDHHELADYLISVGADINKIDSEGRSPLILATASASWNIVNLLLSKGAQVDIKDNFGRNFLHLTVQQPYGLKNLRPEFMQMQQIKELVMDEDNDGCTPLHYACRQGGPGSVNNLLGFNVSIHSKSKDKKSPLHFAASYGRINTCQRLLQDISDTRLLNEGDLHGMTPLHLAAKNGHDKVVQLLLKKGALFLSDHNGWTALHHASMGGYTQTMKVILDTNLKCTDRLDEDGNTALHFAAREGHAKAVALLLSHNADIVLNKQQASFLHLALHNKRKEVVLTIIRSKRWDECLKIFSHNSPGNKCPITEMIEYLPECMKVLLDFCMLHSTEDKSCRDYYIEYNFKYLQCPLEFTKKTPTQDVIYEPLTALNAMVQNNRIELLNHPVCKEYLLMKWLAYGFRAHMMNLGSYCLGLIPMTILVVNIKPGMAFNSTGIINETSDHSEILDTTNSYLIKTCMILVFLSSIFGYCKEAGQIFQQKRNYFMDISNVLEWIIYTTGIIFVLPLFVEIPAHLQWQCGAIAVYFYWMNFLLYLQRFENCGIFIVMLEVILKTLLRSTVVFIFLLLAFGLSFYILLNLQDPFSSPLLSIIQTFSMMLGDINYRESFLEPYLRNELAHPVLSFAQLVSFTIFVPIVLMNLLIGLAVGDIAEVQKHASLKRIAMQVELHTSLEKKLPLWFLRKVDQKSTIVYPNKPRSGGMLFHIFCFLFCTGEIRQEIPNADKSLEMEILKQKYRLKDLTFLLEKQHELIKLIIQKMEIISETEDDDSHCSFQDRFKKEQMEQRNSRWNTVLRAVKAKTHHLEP

- IC50: 13 nM
Compound: CC(C)N(CC(=O)NCc1cc(C2=CCC(C(F)(F)F)CC2)ncn1)S(=O)(=O)c1ccc(F)cc1 (stereo unspecified)
